Laboratory results published in patent publication US11517575B2, “Use of minaprine to reduce tumor growth” (Institut Gustave-Roussy, priority 2019, dated 2022).

System: CT26 cells
Assay: Anti-tumor vaccination assay, CT26 cells in BALB/c mice
Assay type: in vivo, mouse
Details: for frequency of mice showing a protective response: 8 Gy + 10 μM compound 24 h
Method: FIG. 5. Identification of cannibalism modulators as immunogenic cell death inducers. MCA205 (A) or CT26 (E, I, M, Q) cells were treated with the indicated drugs. After 24 h of coculture with the indicated treatment, cell death was monitored by staining DiOC6(3) and PI, and the percentage of dying (DiOC6(3)^low PI^−, open bars) and dead (DiOC6(3)^low PI^+, closed bars) cells was determined by cytofluorometry. (B-D) MCA205 cells or (F-H, J-L, N-P, R-T) CT26 cells cocultured after x irradiation with the indicated compounds were inoculated subcutaneously into the right flank of […] or BALB/c mice, respectively. Seven days later, the mice were rechallenged with live cells injected into the opposite flank, and tumor growth was monitored (five mice per group).
FIG. 6. Tumor vaccination experiments. CT26 cells were treated for 24 hours with 10 μM VP331 (A, F, K), 10 μM Minaprine (B, G, L), 10 μM Lopa87 (C, H, M), 10 μM SG6163F (D, I, N), 10 μM Azaguanine-8 (8-aza) (E, J, O) alone or combined with 8 Gy ionizing radiation and inoculated (s.c.) into immunocompetent BALB/c mice, which were rechallenged at the opposite flank 7 days later with the same cancer cells. The percentage of tumor-free mice was evaluated three times a week for the following 38 days. Percentage of total tumor free mice (A-E), tumor free-mice at the first injection site (F to J, P) or at the second injection site (K to O, Q) are shown. (*P<0.05, **P<0.01, ***P<0.001, two-way ANOVA).
The combination of IRCCE with IR induces efficient antitumor immunity. Considering that immunogenic cell death (ICD) inducers were identified (such as Digoxin, Digitoxin, Lanatoside C or Doxorubicin hydrochloride)^3, 4, 48-51) as IRCCE, the ability of these compounds to induce an antitumor immunity after radiotherapy was evaluated. First, a preclinical approaches was developed to study the immunological effects of IRCCE on two mouse models of carcinoma (colon CT26 carcinoma and fibrosarcoma MCA205). Initially, the ability of the combination of IRCCE+IR to trigger a specific anti-tumor immune response was appreciated using immunocompetent mice through anti-tumor vaccination assays. According to previously published studies^52, the injection of cancer cells succumbing to an immunogenic cell death (ICD) into immunocompetent mice must elicit a protective immune response that is specific for tumor antigens. Thus, 3×10^5 MCA205 cells were first treated with 10 μM of SG6163F for 24 hours. Then, treated cells were inoculated subcutaneously in 200 μl PBS into the lower flank of 8-week-old female C57BL/6 mice. One week later, 3×10^4 untreated control cells were inoculated into the contralateral flank of mice. Tumors were evaluated weekly using a common caliper. Animals bearing tumors that exceeded 20-25% body mass were euthanatized. […] Then, 3×10^6 CT26 cells were irradiated with 8 Gy in presence of 10 μM of SG6163F (FIGS. 5E and 5F), VP331 (FIGS. 5I and 5J), Minaprine dihydrochloride (FIGS. 5M and 5N) or LOPA87 (FIGS. 5Q and 5R) for 24 hours. Then, cells were inoculated as previously described subcutaneously in […] into the lower flank of 8-week-old female BALB/c mice. One week later, 5×10^5 untreated control cells were inoculated into the contralateral flank of mice and tumors were evaluated weekly using a common caliper. As previously mentioned, animals bearing tumors that exceeded 20-25% body mass were euthanatized. The percentage of dying cells in each condition was evaluated by determining with DiOC(6)3/IP staining (FIGS. 5E, 5I, 5M and 5Q). Finally, the ability of these compounds to repress the growth of cancer cells that have been injected 7 days after injection of irradiated and treated cancer cells was appreciated.
A second anti-tumor vaccination assay was done on CT26 mouse models of carcinoma as previously described. […]

In the case of `Cc1cc(-c2ccccc2)nnc1NCCN1CCOCC1.Cl.Cl` [Minaprine dihydrochloride], the “frequency of mice showing a protective response” value (first assay: CT26 cells, rechallenge one week later) was “significant increase in the frequency of mice showing a protective response”, the “protective response after injection of cancer cells” value (second assay: CT26 cells treated with 10 μM compound alone (no IR)) was “induce an increase of protective response” and the “frequency of mice showing a protective response” value (second assay: CT26 cells, rechallenge 7 days later) was “Significant increases in the frequency of mice showing a protective response”.
